Experimental data from patent publication US7105664B2, “5-Halogen-6-phenyl-7-fluoroalkylamino-triazolopyrimidines as fungicides” (BASF Aktiengesellschaft, priority 2001, dated 2006).

Assays:
Pyricularia oryzae = format: in vivo; conditions: 200 ppm, rice seedlings variety Tai-Nong 67, protective; untreated plants infected to 90%
[1] = test system: Blumeria graminis f. sp. tritici; assay: Control of powdery mildew on wheat, Comparison Trial 2; format: in vivo; conditions: wheat variety Kanzler, untreated plants infected to 100%

Compound | infection (% diseased leaf area) (Pyricularia oryzae) | infection (% diseased leaf area) ([1]; 50 ppm) | infection (% diseased leaf area) ([1]; 200 ppm)
Fc1cccc(Cl)c1-c1c(Cl)nc2ncnn2c1NCC(F)(F)F [B] | 10% |  | 
Fc1cc(F)c(-c2c(Cl)nc3ncnn3c2NCC(F)(F)F)c(F)c1 [A] | 60% |  | 
COc1cc(F)c(-c2c(Cl)nc3ncnn3c2NC(C)C(F)(F)F)c(F)c1 (stereo not drawn) [E] |  | 80% | 80%
CC(CNc1c(-c2c(F)cc(F)cc2F)c(Cl)nc2ncnn12)CC(F)(F)F (stereo not drawn) [I-3] | 3% |  | 
FC(F)=C(F)CCNc1c(-c2c(F)cc(F)cc2F)c(Cl)nc2ncnn12 [I-2] | 3% |  | 
Fc1cc(F)c(-c2c(Cl)nc3ncnn3c2NCC(F)C(F)(F)F)c(F)c1 (stereo not drawn) [I-1] | 3% |  | 
COc1cc(F)c(-c2c(Cl)nc3ncnn3c2NCC(F)(F)F)c(F)c1 [D] |  | 80% | 60%
COc1cc(F)c(-c2c(Cl)nc3ncnn3c2NCCC(F)(F)F)c(F)c1 [I-7] |  | 7% | 3%
CC(Nc1c(-c2c(F)cccc2F)c(Cl)nc2ncnn12)C(F)(F)F (stereo not drawn) [C] | 20% |  | 
